{"source": "paper PMC8801796", "about": "(Reproductive Toxicology (Elmsford, N.y.), 2022)", "origin": "cited, not measured here", "key": {"[1]": {"tested_on": "rats, rabbits, and guinea pigs", "conditions": "cited from earlier work"}, "rats [2]": {"tested_on": "rats", "conditions": "cited from earlier work"}, "rabbits": {"tested_on": "rabbits", "conditions": "cited from earlier work"}, "[3]": {"tested_on": "bacterial reverse mutation", "conditions": "in vitro; cited from earlier work"}, "[4]": {"tested_on": "hypoxanthine phosphoribosyltransferase (HPRT) gene", "conditions": "mammalian cell; cited from earlier work"}, "[5]": {"tested_on": "Big Blue® (cII Locus) transgenic rodent", "conditions": "cited from earlier work"}, "[6]": {"tested_on": "monkeys, mice, rats, and rabbits", "conditions": "cited from earlier work"}, "rats [7]": {"tested_on": "rats", "conditions": "rat PPND, maternal dosing GD 6 to postpartum day 20; cited from earlier work"}}, "note": "Where two headings read alike, the source gives them in different places."}
{"smiles": "NC(=O)c1ncn([C@@H]2O[C@H](CO)[C@@H](O)[C@H]2O)n1", "note": "[RBV, ribavirin]", "values": [{"measurement": "Teratogenicity", "setting": "[1]", "value": "embryocidal and/or teratogenic"}]}
{"smiles": "CCC(CC)COC(=O)[C@H](C)N[P@](=O)(OC[C@H]1O[C@@](C#N)(c2ccc3c(N)ncnn23)[C@H](O)[C@@H]1O)Oc1ccccc1", "note": "[remdesivir]", "values": [{"measurement": "Effects on embryo-fetal development", "setting": "rats [2]; rats, up the highest dose tested, 20 mg/kg/day", "value": "no adverse effects on embryo-fetal development"}, {"measurement": "Effects on embryo-fetal development", "setting": "rabbits; rabbits, up the highest dose tested, 20 mg/kg/day", "value": "no adverse effects on embryo-fetal development"}]}
{"smiles": "CC(C)C(=O)OC[C@H]1O[C@@H](n2ccc(NO)nc2=O)[C@H](O)[C@@H]1O", "note": "[molnupiravir]", "values": [{"measurement": "Developmental toxicity", "setting": "rats [2]; rats, 250 mg/kg/day", "value": "no developmental toxicity"}, {"measurement": "Developmental toxicity", "setting": "rats [2]; rats, 500 mg/kg/day, in the presence of decreased maternal body weight gain", "value": "lower fetal body weights and delayed ossification"}, {"measurement": "Developmental toxicity", "setting": "rats [2]; rats, 1000 mg/kg/day (highest dose)", "value": "severe manifestations of developmental toxicity (malformations and embryo-fetal lethality)"}, {"measurement": "Developmental toxicity", "setting": "rabbits; rabbits, 400 mg/kg/day", "value": "no developmental toxicity"}, {"measurement": "Developmental toxicity", "setting": "rabbits; rabbits, 750 mg/kg/day, in the presence of slight maternal toxicity", "value": "lower fetal body weights"}, {"measurement": "Ames assay result", "setting": "[3]", "value": "positive"}, {"measurement": "HPRT gene mutation assay result", "setting": "[4]", "value": "positive"}, {"measurement": "Big Blue transgenic rodent mutagenesis assay result", "setting": "[5]", "value": "negative"}]}
{"smiles": "NC(=O)c1nc(F)c[nH]c1=O", "note": "[FAV, favipiravir]", "values": [{"measurement": "Teratogenicity", "setting": "[6]", "value": "teratogenesis has been reported"}]}
{"smiles": "CC(C)c1nc(CN(C)C(=O)N[C@H](C(=O)N[C@@H](Cc2ccccc2)C[C@H](O)[C@H](Cc2ccccc2)NC(=O)OCc2cncs2)C(C)C)cs1", "note": "[ritonavir]", "values": [{"measurement": "Cryptorchidism in rat EFD study", "setting": "rats [2]; mid (35 mg/kg/day) and high (75 mg/kg/day) doses", "value": "cryptorchidism was reported"}, {"measurement": "Fetal malformations", "setting": "rats [2]; rat EFD, doses of 15, 35, and 75 mg/kg", "value": "no evidence of fetal malformations"}, {"measurement": "Developmental toxicity findings in EFD studies", "setting": "rats [2]; rats and/or rabbits, only at the highest dose evaluated in each species, maternally toxic doses", "value": "higher resorptions, lower fetal body weight, ossification delays, and increased skeletal variations"}, {"measurement": "Fetal malformations", "setting": "rabbits; rabbit EFD, doses of 25, 50, and 110 mg/kg/day", "value": "no evidence of fetal malformations"}, {"measurement": "Cryptorchidism in postnatal developing rats", "setting": "rats [7]", "value": "no reports of cryptorchidism"}]}
